Results taken from article PMC6009892, “A novel series of pyrazole-platinum(II) complexes as potential anti-cancer agents that induce cell cycle arrest and apoptosis in breast cancer cells” (Journal of Enzyme Inhibition and Medicinal Chemistry, 2018).
Where two headings read alike, the source gives them in different places.

Experiments:
Type in all cases: cell-based, human
[1] = tested on: MDA-MB-231 breast cancer cells; test: DNA fragmentation TUNEL assay, MDA-MB-231; conditions: MDA-MB-231, 20 μM, 24 h
Procedure: (§1) DNA fragmentation associated with apoptosis was examined by the terminal deoxynucleotidyltransferase (TdT)- mediated dUTP nick end labeling (TUNEL) method using a commercial assay kit (APO-Direct Kit; BD Pharmingen, San Diego, CA). After treatment, the cells were fixed with 1% paraformaldehyde in PBS (4°C, 30 min), washed in PBS, and permeabilised with ice-cold 70% ethanol. The APO-Direct Kit TUNEL assay was performed as described by the manufacturer. Briefly, the fixed cells were washed twice using the kit wash buffer, and after centrifugation the supernatant was discarded. The DNA labeling solution (containing TdT enzyme and FITC-dUTP) was added to the cell pellet, and the re-suspended mixture was incubated for 1 h at 37°C with occasional shaking. At the end of incubation time, rinse buffer was added, and after centrifugation the supernatant was discarded. We repeated the cell rinsing with rinse buffer, and then suspended the cell pellet in PI/RNase staining buffer. Cells were incubated at room temperature for 30 min and immediately analysed in a BD FACSCanto II flow cytometer. In total, 10,000 events were collected per test sample. The results were analysed with FACSDiva software (both from BD Biosciences Systems, San Jose, CA). The percentage of cells with distinctive apoptotic DNA strand breaks and distinguished by green fluorescent emission was calculated.

[2] = tested on: caspase-3 in MDA-MB-231 breast cancer cells; test: FLICA caspase-3 activity, flow cytometry, MDA-MB-231; conditions: MDA-MB-231, 20 μM, 24 h
Procedure: (§2) Caspase-3 activity was measured using the FLICA Caspase 3 Assay Kit (ImmunoChemistry Technologies, Bloomington, MN, USA), according to the manufacturer’s instructions. Briefly, cultured MDA-MB-231 breast cancer cells (1 × 10^6) were washed with cold PBS twice and re-suspended in buffer. We added 5 µl of diluted FLICA reagent and 2 µl of Hoechst 33342 to 93 µl of cell suspension and mixed by pipetting. The cells were incubated for 60 min at 37°C. After incubation, the cells were washed twice in 400 µl of apoptosis wash buffer and centrifuged at 300 × g. After the last wash, we re-suspended the cells in 100 µl of apoptosis wash buffer supplemented with 10 µg/ml PI. Analysis was performed using the BD FACSCanto II flow cytometer, and the results were analysed with FACSDiva software (both from BD Biosciences Systems, San Jose, CA).

[3] = tested on: MDA-MB-231 breast cancer cells; test: MTT cell viability assay, MDA-MB-231; conditions: 5-50 μM, read-out: IC50 (cell viability, MTT)
Procedure: (§3) MCF-7, MDA-MB-231 (both human breast cancer cell lines), and fibroblast cells were obtained from American Type Culture Collection (ATCC, Manassas, VA, USA). DMEM and FBS used in a cell culture were from Gibco (USA). Glutamine, penicillin, and streptomycin were obtained from Quality Biologicals Inc. (USA). DMEM media was blended with 50 units/ml of penicillin, 50 μg/ml of streptomycin, 10% of FBS. All cell lines were cultured in 5% CO2 and fully humidified at 37 °C. Cells were cultured in Costar flasks and sub-confluent cells were detached with 0.05% trypsin and 0.02% ethylenediaminetetraacetic acid in calcium-free phosphate-buffered saline (PBS), counted in hemocytometers, and plated at 5 × 10^5 cells/well of six-well plates (Thermo Scientific, New York, NY, USA) in 2 ml of growth medium (DMEM without phenol red with 10% CPSR1). Cells reached about 80% of confluency at day 2, and in most cases such cells were used for the assays.
(§4) The viability of cultured cells was decided through assaying the reduction of MTT to formazan. In brief, MCF-7, MDA-MB-231, and fibroblast cells line were seeded at an initial density of 1 × 10^5 cells per well. Then, the cells were incubated at 37 °C for 24 h. Subsequently, cultured cells were treated with a medium containing concentrations (5, 10, 20, 30, 40, and 50 μM) of PtPz1–PtPz6 for 24 h and 48 h. After the incubation period, MTT was added into all wells in the final concentration of 0.5 mg/ml. After that, the cells were incubated at 37 °C for 4 h. Then, by removing the medium, 200 μl of DMSO was added to all wells. As a result, insoluble formazan was dissolved in DMSO (0.5%). At 570 nm (630 nm as a reference), the absorbance was measured in an Evolution 201 reader (Thermo Scientific, Waltham, MA).

[4] = tested on: caspase-8 in MDA-MB-231 breast cancer cells; test: FLICA caspase-8 activity, flow cytometry, MDA-MB-231; conditions: MDA-MB-231, 20 μM, 24 h
Procedure: as §2, with “Caspase-8 activity” for “Caspase-3 activity”, “Caspase 8” for “Caspase 3”, “cultured MCF-7 and” for “cultured”

[5] = tested on: caspase-9 in MDA-MB-231 breast cancer cells; test: FLICA caspase-9 activity, flow cytometry, MDA-MB-231; conditions: MDA-MB-231, 20 μM, 24 h
Procedure: as §2, with “Caspase-9 activity” for “Caspase-3 activity”, “Caspase 9” for “Caspase 3”, “cultured MCF-7 and” for “cultured”, “re-suspended” for “re-suspended the”

[6] = tested on: MCF-7 breast cancer cells; test: DNA fragmentation TUNEL assay, MCF-7; conditions: MCF-7, 20 μM, 24 h; control 4.0%
Procedure: as §1

fibroblast cells = test: MTT cell viability assay, fibroblasts; conditions: 5-50 μM, read-out: IC50 (cell viability, MTT)
Procedure: as §3, §4

[7] = tested on: caspase-8 in MCF-7 breast cancer cells; test: FLICA caspase-8 activity, flow cytometry, MCF-7; conditions: MCF-7, 20 μM, 24 h
Procedure: as §2, with “Caspase-8 activity” for “Caspase-3 activity”, “Caspase 8” for “Caspase 3”, “cultured MCF-7 and” for “cultured”

[8] = tested on: MCF-7 breast cancer cells; test: MTT cell viability assay, MCF-7; conditions: 5-50 μM, read-out: IC50 (cell viability, MTT)
Procedure: as §3, §4

[9] = tested on: caspase-9 in MCF-7 breast cancer cells; test: FLICA caspase-9 activity, flow cytometry, MCF-7; conditions: MCF-7, 20 μM, 24 h
Procedure: as §2, with “Caspase-9 activity” for “Caspase-3 activity”, “Caspase 9” for “Caspase 3”, “cultured MCF-7 and” for “cultured”, “re-suspended” for “re-suspended the”

[Pt2(pyrazole)4(berenil)2]·4HCl·2H2O [PtPz4]
percent of TUNEL positive cells [1]: 22.9% | percent of cells with active caspase-3 [2]: 14.8% | IC50 ([3]; MDA-MB-231, 24 h incubation): 33 ± 3 µM | IC50 ([3]; MDA-MB-231, 48 h incubation): 29 ± 2 µM | percent of cells with active caspase-8 [4]: 29.5% | percent of cells with active caspase-9 [5]: 29.6% | percent of TUNEL positive cells [6]: 29.4% | IC50 (fibroblast cells; 24 h incubation): > 50 µM | IC50 (fibroblast cells; 48 h incubation): 46 ± 2 µM | percent of cells with active caspase-8 [7]: 30.9% | IC50 ([8]; MCF-7, 24 h incubation): 32 ± 2 µM | IC50 ([8]; MCF-7, 48 h incubation): 29 ± 2 µM | percent of cells with active caspase-9 [9]: 29.7%
